Tests used:
Type in all cases: in vivo
transplanted rice plant = assay: Test Example 1: effect on crop, application before weed generation in submerged conditions (symbol a); conditions: application herbicide amount 320 g/ha
Method in brief: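 Alluvial soil pots flooded to 4 cm water, sown with Echinochloa oryzacola, Scirpus juncoides and Monochoria vaginalis, then transplanted with 2.5 leaf stage rice seedlings; pre-emergence application. Greenhouse 25° C. to 30° C.; scored 0–5 by herbicidal ratio 3 weeks after application.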

[1] = tested on: Echinochloa crus-galli var. crus-galli; assay: Test Example 3: herbicidal effect by foliage application, Wagner pot (symbol H); conditions: application herbicide amount 320 g/ha
Method in brief: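 Steps: fill pot with alluvial soil; add water to 0.1–0.5 cm depth; sow weed and rice seed; grow 14 days at 25–30 °C; spray diluted emulsion over the leaves; rate effect after 3 weeks.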

[2] = tested on: directly sowed rice plant; assay: Test Example 3: effect on crop by foliage application, Wagner pot (symbol b); conditions: application herbicide amount 320 g/ha
Method in brief: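 Steps: fill a 1/10000-are Wagner pot with alluvial soil; add water and mix to submerge at 0.1–0.5 cm depth; sow rice plus Echinochloa crus-galli var. crus-galli, Leptochloa chinensis and Cyperus difformis; grow in a 25–30 °C greenhouse.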

Digitaria ciliaris [3] = assay: Test Example 4: herbicidal effect by soil treatment (symbol F); conditions: application herbicide amount 320 g/ha
Method in brief: (§1)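 Seeds were sown in sterilized diluvial soil, covered with about 1.5 cm of soil, and the soil surface was sprayed with a water-diluted emulsion of the compound at a predetermined rate. Plants grew in a greenhouse at 25° C. to 30° C.; effects were scored visually 3 weeks after application.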

Setaria viridis = assay: Test Example 4: herbicidal effect by soil treatment (symbol G); conditions: application herbicide amount 320 g/ha
Method in brief: as §1

Lolium multiflorum Lam. [4] = assay: Test Example 4: herbicidal effect by soil treatment (symbol K); conditions: application herbicide amount 320 g/ha
Method in brief: as §1

Amaranthus retroflexus = assay: Test Example 4: herbicidal effect by soil treatment (symbol N); conditions: application herbicide amount 320 g/ha
Method in brief: as §1

Chenopodium album [5] = assay: Test Example 4: herbicidal effect by soil treatment (symbol O); conditions: application herbicide amount 320 g/ha
Method in brief: as §1

Galium spurium = assay: Test Example 4: herbicidal effect by soil treatment (symbol Q); conditions: application herbicide amount 320 g/ha
Method in brief: as §1

Veronica persica = assay: Test Example 4: herbicidal effect by soil treatment (symbol R); conditions: application herbicide amount 320 g/ha
Method in brief: as §1

wheat = assay: Test Example 4: effect on crop by soil treatment (symbol e); conditions: application herbicide amount 320 g/ha
Method in brief: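 The test used sterilized diluvial soil. Seed was set down in spots and overlaid with about 1.5 cm of soil before growth in a greenhouse kept at 25° C. to 30° C.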

Digitaria ciliaris [6] = assay: Test Example 5: herbicidal effect by foliage application, plastic box (symbol F); conditions: 320 g/ha, 3 weeks after application
Method in brief: (§2)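 Sowing in sterilized diluvial soil, 14 days' greenhouse growth at 25° C. to 30° C., then uniform small-sprayer foliar application of aqueous emulsion dilution; plants scored three weeks afterwards.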

Alopecurus myosuroides = assay: Test Example 5: herbicidal effect by foliage application, plastic box (symbol J); conditions: 320 g/ha, 3 weeks after application
Method in brief: as §2

Lolium multiflorum Lam. [7] = assay: Test Example 5: herbicidal effect by foliage application, plastic box (symbol K); conditions: 320 g/ha, 3 weeks after application
Method in brief: as §2

Abutilon theophrasti = assay: Test Example 5: herbicidal effect by foliage application, plastic box (symbol M); conditions: 320 g/ha, 3 weeks after application
Method in brief: as §2

Chenopodium album [8] = assay: Test Example 5: herbicidal effect by foliage application, plastic box (symbol O); conditions: 320 g/ha, 3 weeks after application
Method in brief: as §2

Stellaria media = assay: Test Example 5: herbicidal effect by foliage application, plastic box (symbol P); conditions: 320 g/ha, 3 weeks after application
Method in brief: as §2

beet = assay: Test Example 5: effect on crop by foliage application, plastic box (symbol f); conditions: 320 g/ha, 3 weeks after application
Method in brief: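 In a plastic box 7 cm deep filled with sterilized diluvial soil, seeds of crops and weeds such as Digitaria ciliaris, Avena fatua and Amaranthus retroflexus are sown in spots and covered with about 1.5 cm of soil before greenhouse growth at 25–30° C.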

Compound | Effect grade on crop, a: transplanted rice plant (transplanted rice plant) | Herbicidal effect grade, F: Digitaria ciliaris (Digitaria ciliaris [3]) | Herbicidal effect grade, G: Setaria viridis (Setaria viridis) | Herbicidal effect grade, K: Lolium multiflorum Lam. (Lolium multiflorum Lam. [4]) | Herbicidal effect grade, N: Amaranthus retroflexus (Amaranthus retroflexus) | Herbicidal effect grade, O: Chenopodium album (Chenopodium album [5]) | Herbicidal effect grade, Q: Galium spurium (Galium spurium) | Herbicidal effect grade, R: Veronica persica (Veronica persica) | Effect on crop grade, e: wheat (wheat) | F: Digitaria ciliaris, herbicidal effect (criteria of Test Example 1) (Digitaria ciliaris [6]) | J: Alopecurus myosuroides, herbicidal effect (criteria of Test Example 1) (Alopecurus myosuroides) | K: Lolium multiflorum Lam., herbicidal effect (criteria of Test Example 1) (Lolium multiflorum Lam. [7]) | M: Abutilon theophrasti, herbicidal effect (criteria of Test Example 1) (Abutilon theophrasti) | O: Chenopodium album, herbicidal effect (criteria of Test Example 1) (Chenopodium album [8]) | P: Stellaria media, herbicidal effect (criteria of Test Example 1) (Stellaria media) | f: beet, effect on crop (criteria of Test Example 1) (beet) | herbicidal effect on H (Echinochloa crus-galli var. crus-galli), grade 0-5 [1] | effect on crop b (directly sowed rice plant), grade 0-5 [2] | also measured
COc1cc(Br)cc(C)c1C1=C(O)CC(CC(C)=O)C1=O (stereo not drawn) [7-027, 2-(4-bromo-2-methoxy-6-methylphenyl)-3-hydroxy-5-(2-oxopropyl)cyclopent-2-enone] | 3 (Herbicidal ratio of 40% or higher and lower than 70%) | 5 (Herbicidal ratio of 90% or more (almost completely withered)) | 5 (Herbicidal ratio of 90% or more (almost completely withered)) | 5 (Herbicidal ratio of 90% or more (almost completely withered)) | 0 (Herbicidal ratio of 5% or lower (almost no effect)) | 0 (Herbicidal ratio of 5% or lower (almost no effect)) | 0 (Herbicidal ratio of 5% or lower (almost no effect)) | 0 (Herbicidal ratio of 5% or lower (almost no effect)) | 2 (Herbicidal ratio of 20% or higher and lower than 40%) | 5 (Herbicidal ratio of 90% or more (almost completely withered)) | 1 (Herbicidal ratio of 5% or higher and lower than 20%) | 5 (Herbicidal ratio of 90% or more (almost completely withered)) | 0 (Herbicidal ratio of 5% or lower (almost no effect)) | 0 (Herbicidal ratio of 5% or lower (almost no effect)) | 0 (Herbicidal ratio of 5% or lower (almost no effect)) | 0 (Herbicidal ratio of 5% or lower (almost no effect)) |  |  | H (Echinochloa crus-galli var. crus-galli) herbicidal effect grade ([1]; Table 24): 5 (Herbicidal ratio of 90% or more (almost completely withered)); b (directly sowed rice plant) effect on crop grade ([2]; Table 24): 5 (Herbicidal ratio of 90% or more (almost completely withered))
CON=C(C)CC1CC(O)=C(c2c(F)cc(C)cc2OC)C1=O (stereo not drawn) [6-108] | 5 (Herbicidal ratio of 90% or more (almost completely withered)) | 5 (Herbicidal ratio of 90% or more (almost completely withered)) | 4 (Herbicidal ratio of 70% or higher and lower than 90%) | 5 (Herbicidal ratio of 90% or more (almost completely withered)) | 4 (Herbicidal ratio of 70% or higher and lower than 90%) | 5 (Herbicidal ratio of 90% or more (almost completely withered)) | 3 (Herbicidal ratio of 40% or higher and lower than 70%) | 3 (Herbicidal ratio of 40% or higher and lower than 70%) | 3 (Herbicidal ratio of 40% or higher and lower than 70%) | 5 (Herbicidal ratio of 90% or more (almost completely withered)) | 5 (Herbicidal ratio of 90% or more (almost completely withered)) | 5 (Herbicidal ratio of 90% or more (almost completely withered)) | 5 (Herbicidal ratio of 90% or more (almost completely withered)) | 2 (Herbicidal ratio of 20% or higher and lower than 40%) | 3 (Herbicidal ratio of 40% or higher and lower than 70%) | 0 (Herbicidal ratio of 5% or lower (almost no effect)) | 5 (Herbicidal ratio of 90% or more (almost completely withered)) | 5 (Herbicidal ratio of 90% or more (almost completely withered)) | 
CON=C(C)CC1CC(OS(=O)(=O)N(C)C)=C(c2c(C)cc(-c3ccc(F)cc3)cc2C)C1=O (mixture of isomers) [6-060] | 5 (Herbicidal ratio of 90% or more (almost completely withered)) |  |  |  |  |  |  |  |  | 5 (Herbicidal ratio of 90% or more (almost completely withered)) | 5 (Herbicidal ratio of 90% or more (almost completely withered)) | 5 (Herbicidal ratio of 90% or more (almost completely withered)) | 5 (Herbicidal ratio of 90% or more (almost completely withered)) | 4 (Herbicidal ratio of 70% or higher and lower than 90%) | 4 (Herbicidal ratio of 70% or higher and lower than 90%) | 2 (Herbicidal ratio of 20% or higher and lower than 40%) | 5 (Herbicidal ratio of 90% or more (almost completely withered)) | 5 (Herbicidal ratio of 90% or more (almost completely withered)) | F: Digitaria ciliaris, herbicidal effect grade (Digitaria ciliaris [3]): 5 (Herbicidal ratio of 90% or more (almost completely withered)); G: Setaria viridis, herbicidal effect grade (Setaria viridis): 5 (Herbicidal ratio of 90% or more (almost completely withered)); K: Lolium multiflorum Lam., herbicidal effect grade (Lolium multiflorum Lam. [4]): 3 (Herbicidal ratio of 40% or higher and lower than 70%); N: Amaranthus retroflexus, herbicidal effect grade (Amaranthus retroflexus): 5 (Herbicidal ratio of 90% or more (almost completely withered)); O: Chenopodium album, herbicidal effect grade (Chenopodium album [5]): 0 (Herbicidal ratio of 5% or lower (almost no effect)); Q: Galium spurium, herbicidal effect grade (Galium spurium): 0 (Herbicidal ratio of 5% or lower (almost no effect)); R: Veronica persica, herbicidal effect grade (Veronica persica): 2 (Herbicidal ratio of 20% or higher and lower than 40%); e: wheat, effect on crop grade (wheat): 0 (Herbicidal ratio of 5% or lower (almost no effect))

— patent US11000033B2, “Ketone or oxime compound, and herbicide” (NISSAN CHEMICAL CORPORATION, priority 2014, dated 2021)
